# Assays:
# [1] = system: Wistar rats; details: ref Savić et al., 2008; cited from earlier work
# [2] = biological target: T1, α5β3γ2 GABAA receptors (Rattus norvegicus, UniProt P18508+P19969); details: 100 nM; ref Savić et al., 2010; cited from earlier work
# [3] = biological target: T2, α2β3γ2 GABAA receptors (Rattus norvegicus, UniProt P18508+P23576); assay: Two-electrode voltage clamp in Xenopus oocytes, α2β3γ2; format: cell-based; details: 200 mg/kg dose
# [4] = biological target: α2β3γ2S GABAA receptors (Rattus norvegicus, UniProt P18508+P23576); details: read-out: Ki at α2β3γ2 GABAA receptors; ref Savić et al., 2010; cited from earlier work
# [5] = biological target: T3, α3β3γ2 GABAA receptors (Rattus norvegicus, UniProt P18508+P20236); details: 100 nM; ref Savić et al., 2010; cited from earlier work
# [6] = biological target: α1β3γ2 GABAA receptors (Rattus norvegicus, UniProt P18508+P62813); details: 100 nM; ref Savić et al., 2010; cited from earlier work
# [7] = Pharmacokinetic study, plasma and brain concentrations after i.p. injection; details: rat, 20 min
# [8] = biological target: T3, α3β3γ2 GABAA receptors; assay: Two-electrode voltage clamp in Xenopus oocytes, α3β3γ2; format: cell-based; details: 200 mg/kg dose
# [9] = In vitro hydrolytic stability study in rat plasma; format: in vitro ADME; details: for % remaining in plasma (in vitro metabolic stability) / Total plasma concentration (in vitro metabolic stability): rat plasma 37 °C
# [10] = biological target: κ opioid receptor (KOR) (Homo sapiens, UniProt P41145); details: read-out: Affinity at KOR; ref B. Roth et al., NIMH Psychoactive Drug Screening Program; cited from earlier work
# [11] = biological target: T4, α5β3γ2S GABAA receptors (Rattus norvegicus, UniProt P18508+P19969); assay: 3H-flunitrazepam competition binding, α5β3γ2S; details: ratio of Ki values
# [12] = biological target: α3β3γ2S GABAA receptors (Rattus norvegicus, UniProt P18508+P20236); details: read-out: Ki at α3β3γ2 GABAA receptors; ref Savić et al., 2010; cited from earlier work
# [13] = Plasma protein and brain tissue binding; format: in vitro ADME, rat; details: rapid equilibrium dialysis
# [14] = biological target: T1, α5β3γ2 GABAA receptors; assay: Two-electrode voltage clamp in Xenopus oocytes, α5β3γ2; format: cell-based
# [15] = biological target: α1β3γ2S GABAA receptors (Rattus norvegicus, UniProt P18508+P62813); details: read-out: Ki at α1β3γ2 GABAA receptors; ref Savić et al., 2010; cited from earlier work
# [16] = system: Wistar rats; assay: Rotarod test; format: in vivo, rat; details: 200 mg/kg i.p.; vs. 180 s with control animals; n = 4
# [17] = biological target: T4, α5β3γ2S GABAA receptors; details: read-out: Ki at α5β3γ2 GABAA receptors; ref Savić et al., 2010; cited from earlier work
# [18] = biological target: T2, α2β3γ2 GABAA receptors; details: 100 nM; ref Savić et al., 2010; cited from earlier work
smiles,measurement,setting,value
C#Cc1ccc2c(c1)C(c1ccccc1F)=N[C@@H](C)c1c(C(=O)OCC)ncn1-2 [SH-053-2′F-S-CH3],Median incapacitating dose (rotarod),[1],219 mg/kg
C#Cc1ccc2c(c1)C(c1ccccc1F)=N[C@H](C)c1c(C(=O)OCC)ncn1-2 [SH-053-2′F-R-CH3],"% of control current, α5β3γ2",[2],183 ± 7%
same,Estimated potentiation at α2GABAARs,[3],171%
same,Ki,[4],948 nM
same,"% of control current, α3β3γ2",[5],125 ± 8%
same,"% of control current, α1β3γ2",[6],111 ± 2%
same,Brain free (estimated) concentration,[7]; 10 mg/kg i.p.,29.10 ± 5.14 nmol/kg
same,Brain total concentration,[7]; 10 mg/kg i.p.,752.00 ± 132.84 nmol/kg
same,Plasma free (estimated) concentration,[7]; 10 mg/kg i.p.,278.60 ± 52.39 nmol/L
same,Plasma total concentration,[7]; 10 mg/kg i.p.,406.43 ± 76.45 nmol/L
same,Brain free (estimated) concentration,[7]; 20 mg/kg i.p.,38.85 ± 3.39 nmol/kg
same,Brain total concentration,[7]; 20 mg/kg i.p.,1003.57 ± 87.55 nmol/kg
same,Plasma free (estimated) concentration,[7]; 20 mg/kg i.p.,288.32 ± 47.99 nmol/L
same,Plasma total concentration,[7]; 20 mg/kg i.p.,420.63 ± 70.01 nmol/L
same,Brain free (estimated) concentration,[7]; 30 mg/kg i.p.,64.40 ± 14.64 nmol/kg
same,Brain total concentration,[7]; 30 mg/kg i.p.,1663.84 ± 378.29 nmol/kg
same,Plasma free (estimated) concentration,[7]; 30 mg/kg i.p.,380.78 ± 46.73 nmol/L
same,Plasma total concentration,[7]; 30 mg/kg i.p.,555.51 ± 68.18 nmol/L
same,Brain free (estimated) concentration,[7]; 150 mg/kg i.p.,147.74 ± 37.36 nmol/kg
same,Brain total concentration,[7]; 150 mg/kg i.p.,3816.79 ± 965.21 nmol/kg
same,Plasma free (estimated) concentration,[7]; 150 mg/kg i.p.,1100.14 ± 186.36 nmol/L
same,Plasma total concentration,[7]; 150 mg/kg i.p.,1604.96 ± 271.88 nmol/L
same,Brain free (estimated) concentration,[7]; 200 mg/kg i.p.,324.16 ± 89.88 nmol/kg
same,Brain total concentration,[7]; 200 mg/kg i.p.,8374.25 ± 2322.03 nmol/kg
same,Plasma free (estimated) concentration,[7]; 200 mg/kg i.p.,1876.71 ± 196.63 nmol/L
same,Plasma total concentration,[7]; 200 mg/kg i.p.,2737.87 ± 286.86 nmol/L
same,Estimated potentiation at α3GABAARs,[8],155%
same,% remaining in plasma (in vitro metabolic stability),[9]; 0 min,100%
same,Total plasma concentration (in vitro metabolic stability),[9]; 0 min,0.5556 µM
same,% remaining in plasma (in vitro metabolic stability),[9]; 30 min,76.64%
same,Total plasma concentration (in vitro metabolic stability),[9]; 30 min,0.4258 ± 0.0042 µM
same,% remaining in plasma (in vitro metabolic stability),[9]; 60 min,62.77%
same,Total plasma concentration (in vitro metabolic stability),[9]; 60 min,0.3487 ± 0.0040 µM
same,% remaining in plasma (in vitro metabolic stability),[9]; 120 min,38.27%
same,Total plasma concentration (in vitro metabolic stability),[9]; 120 min,0.2126 ± 0.0036 µM
same,% remaining in plasma (in vitro metabolic stability),[9]; 240 min,5.24%
same,Total plasma concentration (in vitro metabolic stability),[9]; 240 min,0.0291 ± 0.0023 µM
same,In vitro metabolic stability during incubation in rat plasma,"[9]; rat, plasma",less stable
same,Ki,[10],240 nM
same,Selectivity in binding to α5GABAARs compared to α1-containing GABAA receptors,[11],8 fold
same,Selectivity in binding to α5GABAARs compared to α2-containing GABAA receptors,[11],10 fold
same,Ki,[12],769 nM
same,Free fraction in brain tissue,[13]; rat brain tissue,3.87%
same,Free fraction in plasma,[13]; rat plasma,68.55%
same,Estimated potentiation of GABA-mediated currents at α5GABAARs,"[14]; approximated from estimated free rat brain concentration, 200 mg/kg i.p.",280%
same,Concentration needed to elicit 300% potentiation at α5GABAARs,"[14]; read from concentration-response curves of Savić et al., 2010",above 300 nM
same,Ki,[15],759 nM
same,"Rotarod, time remaining on the rod",[16],154 ± 26 s
same,Ki,[17],95.2 nM
same,"% of control current, α2β3γ2",[18],124 ± 9%
